From patent US9725484B2, “Methods and compositions for the treatment of bone remodeling disorders” (THE REGENTS OF THE UNIVERSITY OF MICHIGAN, priority 2013, dated 2017)
Starred links: 1 amine or outer side, 2 acyl side, 3 side chain; linkers in the order of their positions; H or OH if unused. Positions of bridges follow the written chain, without caps; N, C: chain ends. Non-standard residues stand in square brackets, D forms with d. Residues, ends and D or L forms follow the SMILES beside them. No end group written: not given here. CO = O=C([*:1])[*:2]; Nlys = NCCCCNCC(=O)O

Experiments:
[1] = test system: SE-activated NO signaling; assay: Signal transduction assay: inhibition of SE-activated NO signaling; type: cell-based
Description: (§1) Surface plasmon resonance (SPR) and signal transduction assays were performed as previously described (Holoshitz et al., 2012; supra; Ling et al., 2010. PLoS ONE 5: e11703; Ling et al., 2012 Arthritis Rheum.). In vitro assays for OC differentiation, using primary bone marrow cells (BMCs) isolated from femurs and tibias, or PBMCs isolated from healthy blood donors were performed as previously described (Holoshitz et al., 2012; supra).

[2] = test system: SE-activated OC differentiation in human cells (PBMCs); assay: In vitro OC differentiation assay, human PBMCs; type: cell-based; conditions: FIG. 2D
Description: Isolation of human peripheral blood mononuclear cells (PBMCs) and culture of M1 fibroblasts were previously described (Holoshitz et al., 2012, J. Immunol.). DBA/1 mice, 6 to 10 weeks old, were purchased from the Jackson Laboratory (Bar Harbor, Me.). Mice were maintained and housed at the University of Michigan-Unit for Laboratory Animal Medicine facility, and all experiments were performed in accordance with protocols approved by University of Michigan Committee on Use and Care of Animals.
as §1

[3] = test system: osteoclastogenesis in mouse bone marrow cell cultures; assay: In vitro OC differentiation assay, mouse bone marrow cell cultures; type: cell-based; conditions: FIG. 2E; for Inhibition of basal osteoclastogenesis: mouse bone marrow cell cultures; for Inhibition of SE-activated OC differentiation: mouse cells
Description: as §1

recombinant CRT = target: T1, recombinant CRT (Mus musculus, UniProt P14211); assay: Surface plasmon resonance (SPR) binding assay: binding to CRT and competitive inhibition of SE ligand 65-79*0401 binding; conditions: for Potency of competitive inhibition of SE ligand binding to CRT: result in words
T1 construct: made in house
T1 sequence (P14211 18-416): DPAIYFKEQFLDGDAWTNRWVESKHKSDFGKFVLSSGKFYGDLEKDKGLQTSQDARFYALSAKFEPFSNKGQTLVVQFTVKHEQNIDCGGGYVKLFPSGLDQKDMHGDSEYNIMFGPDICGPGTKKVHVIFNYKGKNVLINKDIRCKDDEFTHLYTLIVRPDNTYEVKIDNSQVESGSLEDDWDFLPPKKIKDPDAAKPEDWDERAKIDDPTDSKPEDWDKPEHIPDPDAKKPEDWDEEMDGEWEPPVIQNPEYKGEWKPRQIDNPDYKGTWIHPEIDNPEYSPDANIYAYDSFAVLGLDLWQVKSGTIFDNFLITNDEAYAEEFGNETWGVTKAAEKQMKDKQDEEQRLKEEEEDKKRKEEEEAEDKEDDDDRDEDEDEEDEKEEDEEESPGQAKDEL
Description: Ficoll-Paque™, 4,5-Diaminofluorescein Diacetate (DAF-2 DA), 5-(and -6)-chloromethyl-2′,7′ dichlorodihydrofluorescein (CM-H2DCFDA), macrophage colony-stimulating factor (M-CSF), RANKL, denatured chicken collagen type II (CII), and complete Freund's Adjuvant (CFA) were purchased from previously listed sources. All other commercial reagents were purchased from Sigma (St Louis, Mo.). Linear peptides were synthesized and purified (>90%) as previously described (Ling et al., 2006 supra; Ling et al., 2007 Arthritis Res Ther 9: R5; Ling et al., 2007 The Journal of Immunology 179: 6359-6367; De Almeida et al., supra). Peptidomimetics were prepared by backbone cyclization (Kotake et al., 1999 J. Clin. Invest. 103: 1345-1352) of a 5mer peptide carrying the sequence DKCLA (SEQ ID NO: 1). Recombinant mouse CRT was purified as described (Ling and Holoshitz. 2007 The Journal of Immunology 179: 6359-6367).
as §1

osteoclastogenesis = assay: In vitro osteoclastogenesis / OC differentiation, cells not given; type: cell-based
Description: as §1

CIA [4] = assay: Collagen-induced arthritis (CIA) in DBA/1 mice; type: in vivo, mouse
Description: DBA/1 mice (7-10 week old) were immunization as described (Holoshitz, 2012, J. Immunol.) with chicken CII in CFA. In brief, 50 μl of an emulsion containing 100 μg of CII in 25 μl of 0.05 M acetic acid and 25 μl of CFA was injected intradermally at the base of the tail. Mice were injected once per week intraperitoneally with either 1 or 10 pg (HS4-4)c Trp at in 50 μl of PBS. Arthritis severity was determined as previously described (Holoshitz, 2012, J. Immunol.), using a visual scoring system on a 4-point scale for each paw: 0=no arthritis, 1=swelling and redness confined to digits, 2=minor swelling and redness spreading from the digits to the distal paw, and 3=major swelling and redness extending proximally from the paw.
Limbs were dissected and decalcified in 10% EDTA for 14 days at 4° C. After decalcification, the specimens were processed for paraffin embedding and serial sectioned. The histological sections were deparaffinized, rehydrated and stained with hematoxylin and eosin (H&E), or for tartrate-resistant acid phosphatase (TRAP) activity using a commercial kit (Kamiya Biomedical Company, Seattle, Wash.). To determine OC abundance, TRAP-positive multinucleated cells were counted. Data represent mean±SEM of the total number of OCs in front and rear paws+knees. Bone damage was evaluated by radiography and micro-computed tomography (micro-CT) as previously described (Holoshitz, 2012, J. Immunol.).

CIA [5] = conditions: in vivo; cited from earlier work
rodent cells = assay: Literature: in vitro inhibition in rodent cells (Fridman et al.); type: cell-based
[6] = target: T2, recombinant mouse CRT (calreticulin) (mouse, UniProt P14211 18-416, limits assumed); assay: SPR, peptide as analyte, recombinant CRT immobilized
T2 construct: also called recombinant CRT
T2 sequence (looked up): T1 sequence (P14211 18-416)

HS(6-4)c Trp: backbone cyclic DKCLA (cDKCLA) peptidomimetic; cyclization linker m is 6 and n is 4 (bridge (positions not given here); not fully specified (bridges); also: backbone cyclized, linker m=6, n=4, 'Trp' in name unexplained)
IC50 [1]: 6.3 nM

HS(3-3)c Trp: backbone cyclic DKCLA (cDKCLA) peptidomimetic; cyclization linker m is 3 and n is 3 (bridge (positions not given here); not fully specified (bridges); also: backbone cyclized, linker m=3, n=3, 'Trp' in name unexplained)
IC50 [1]: 0.0018 nM
Inhibition of SE-activated OC differentiation [2]: sub-pM
Inhibition of basal osteoclastogenesis [3]: sub-pM
Inhibition of SE-activated OC differentiation [3]: sub-pM

HS(6-2)c Trp: backbone cyclic DKCLA (cDKCLA) peptidomimetic; cyclization linker m is 6 and n is 2 (bridge (positions not given here); not fully specified (bridges); also: backbone cyclized, linker m=6, n=2, 'Trp' in name unexplained)
IC50 [1]: 770 nM

HS(4-6)c Trp: backbone cyclic DKCLA (cDKCLA) peptidomimetic; cyclization linker m is 4 and n is 6 (bridge (positions not given here); not fully specified (bridges); also: backbone cyclized, linker m=4, n=6, 'Trp' in name unexplained)
IC50 [1]: 560 nM

C[C@H](NC(=O)CN1CCCCNC(=O)NCCCCN(C(=O)[C@@H](N)Cc2c[nH]c3ccccc23)CC(=O)N[C@@H](CC(=O)O)C(=O)N[C@@H](CCCCN)C(=O)N[C@@H](CS)C1=O)C(N)=O [HS(4-4)c Trp] (H-W[Nlys]DKC[Nlys]A-NH2; linker 2-6 via CO)
IC50 [1]: 0.0016 nM
SEAL potency relative to the linear DKCLA peptide [1]: 1,000,000 times
Concentrations blocking the SE signaling effects ([1]; result in words): low-pM
Potency of competitive inhibition of SE ligand binding to CRT (recombinant CRT): low-pM
Inhibition of SE-activated OC differentiation [2]: sub-pM
Inhibition of basal osteoclastogenesis [3]: sub-pM
Inhibition of SE-activated OC differentiation [3]: sub-pM
Concentrations with inhibitory effect on OC differentiation (osteoclastogenesis; result in words): sub-to-low-pM
Dose range achieving disease amelioration effects (CIA [4]; mouse, in vivo): ng/kg-range
In vivo potency relative to INCB028050, SB1518, CEP-33779 (CIA [4]; mouse, in vivo): 1,000,000 fold
Arthritis incidence (CIA [4]; weekly ip): lower incidence
Arthritis severity (CIA [4]; weekly ip): significantly milder
Bone destruction, micro-CT imaging of joints (CIA [4]; weekly ip): lesser extent of bone destruction
OC abundance, synovial tissue histology (TRAP) (CIA [4]; weekly ip): lower OC abundance
Arthritis onset (CIA [4]; weekly ip, low-picogram doses): delayed onset

C1=C/COCc2cc(ccc2OCCN2CCCC2)Nc2nccc(n2)-c2cccc(c2)COC/1 [SB1518]
Dose range with therapeutic efficacy in CIA (CIA [5]): mg/kg-range

DKCLA [Linear DKCLA]
IC50 [1]: 35000 nM
Block of NO induction by the SE ligand ([1]; result in words): completely blocked
Binding to CRT (recombinant CRT; peptide in the analyte, CRT immobilized on the biosensor chip): bound to CRT
Potency of competitive inhibition of SE ligand binding to CRT (recombinant CRT): low-μM-range

HS(3-4)c Trp (DKCLA; bridge (positions not given here); not fully specified (bridges); also: backbone cyclized, linker m=3, n=4, 'Trp' in name unexplained)
IC50 [1]: 4300 nM
Inhibition of osteoclastogenesis (osteoclastogenesis; FIG. 2F): does not inhibit
Arthritis incidence (CIA [4]; weekly ip): does not inhibit
Arthritis severity (CIA [4]; weekly ip): does not inhibit

CCS(=O)(=O)N1CC(CC#N)(n2cc(-c3ncnc4[nH]ccc34)cn2)C1 [INCB028050]
Potency lower than compound HS(4-4)c Trp (rodent cells): ~1000 fold
Dose range with therapeutic efficacy in CIA (CIA [5]): mg/kg-range

CN1CCN(c2cccc(Nc3nc4c(-c5ccc(S(C)(=O)=O)cc5)cccn4n3)c2)CC1 [CEP-33779]
Dose range with therapeutic efficacy in CIA (CIA [5]): mg/kg-range

B1: linear DKCLA (SEQ ID NO: 1) peptide (peptide)
peptide: DKCLA
notes: Synthetic linear 5mer; analyte in SPR
binding result [6]: binds
